Legend:
Type in all cases: physicochemical
[1] = Degree of order S in nematic broad-range mixture (dichroic ratio, homogeneous edge orientation, ground PVA cells); settings: room temperature
Method: The degree of order S was determined using the conventional equation [formula] the measurement being carried out in commercial measuring cells with a homogeneous edge orientation (ground PVA). The dichroic ratio CR was determined by measuring the extinctions E" (measurement with light polarized parallel to the preferred direction of the nematic phase) and E^.perp. (measurement with light polarized perpendicular to the preferred direction of the nematic phase) and using the relationship CR=E"/E^.perp. the dye concentration being chosen so that E" was from 1 to 2. The measurements were carried out in a Beckmann Acta CIII spectrophotometer.

[2] = Solubility L in liquid crystal mixture (saturated solution, comparison of extinction); settings: room temperature, percentages by weight unless stated otherwise
[3] = Light stability: high-speed exposure of the measuring cell in a Suntest from Hanau; settings: 25° C., at the stated λmax
Method: The light stability was determined by high-speed exposure of the measuring cell in a Suntest from Hanau, at 25° C. In this procedure, the decrease in E" was measured. […] E" was determined at the stated λmax values.

[4] = ZLI 1840 (Merck), 1 week stirring

Row | Compound | Degree of order S ([1]; ZLI 1840 (Merck)) | Solubility L [2, 4] [%] | E80% " (exposure time after which E"o has decreased to 80%) [3] [h] | Eo " (initial extinction) [3] | Degree of order S ([1]; ZLI 1957/5 (Merck)) | Solubility L ([2]; ZLI 1957/5 (Merck)) [%]
1 | CCCCCC1CCC(c2ccc(COc3ccc(N=Nc4ccc(N=Nc5ccc(N=Nc6ccc(O)cc6C)cc5)cc4)c(C)c3)cc2)CC1 (centres unmarked) [Example 5] | 0.79 | 1.9 | 70 | 1.23 | – | –
2 | CCCCCC1CCC(c2ccc(COc3ccc(N=Nc4ccc(N=Nc5ccc(N=Nc6ccc(OCc7ccc(C8CCC(CCCCC)CC8)cc7)cc6C)cc5)cc4)c(C)c3)cc2)CC1 (centres unmarked) [Example 9] | 0.81 | 0.8 | 140 | 1.51 | – | –
3 | Cc1cc(C)c(COc2ccc(N=Nc3ccc(N=Nc4ccc(N=Nc5ccc(OCc6c(C)cc(C)cc6C)cc5C)cc4)cc3)c(C)c2)c(C)c1 [Example 3] | 0.77 | 1.0 | 110 | 1.95 | – | –
4 | CCCCCc1ccc(COc2cc(C)c(N=Nc3ccc(N=Nc4ccc(N=Nc5c(C)cc(OCc6ccc(CCCCC)cc6)cc5C)cc4)cc3)c(C)c2)cc1 [Example 16] | – | – | – | – | 0.80 | 3
5 | CCCCCC1CCC(c2ccc(COc3cc(C)c(N=Nc4ccc(N=Nc5ccc(N=Nc6c(C)cc(OCc7ccc(C8CCC(CCCCC)CC8)cc7)cc6C)cc5)cc4)c(C)c3)cc2)CC1 (centres unmarked) [Example 17] | – | – | – | – | 0.81 | 0.2
6 | Cc1cc(O)ccc1N=Nc1ccc(N=Nc2ccc(N=Nc3ccc(OCc4ccccc4)cc3C)cc2)cc1 [Example 1, 4-(2-methyl-4-hydroxyphenylazo)-4'-(2-methyl-4-benzyloxyphenylazo)-azobenzene] | 0.75 | 0.9 | – | – | – | –
7 | CCCCC1CCC(c2ccc(COc3ccc(N=Nc4ccc(N=Nc5ccc(N=Nc6ccc(OCc7ccc(C8CCC(CCCC)CC8)cc7)cc6C)cc5)cc4)c(C)c3)cc2)CC1 (centres unmarked) [Example 8] | 0.79 | 0.3 | – | – | – | –

Now from value to molecule:

Row | Degree of order S ([1]; ZLI 1840 (Merck)) | Solubility L [2, 4] [%] | E80% " (exposure time after which E"o has decreased to 80%) [3] [h] | Eo " (initial extinction) [3] | Degree of order S ([1]; ZLI 1957/5 (Merck)) | Solubility L ([2]; ZLI 1957/5 (Merck)) [%] | Compound
8 | 0.75 | 0.3 | – | – | – | – | Cc1cc(OCc2ccc(C(C)(C)C)cc2)ccc1N=Nc1ccc(N=Nc2ccc(N=Nc3ccc(OCc4ccc(C(C)(C)C)cc4)cc3C)cc2)cc1 [Example 4]
9 | – | – | – | – | 0.81 | 1.2 | CCCCCc1ccc(COc2ccc(N=Nc3ccc(N=Nc4ccc(N=Nc5ccc(OCc6ccc(CCCCC)cc6)cc5C)cc4)cc3)c(C)c2)cc1 [Example 10]
10 | – | – | – | – | 0.76 | 0.7 | Cc1cc(OCc2cc(C(C)(C)C)cc(C(C)(C)C)c2)ccc1N=Nc1ccc(N=Nc2ccc(N=Nc3ccc(OCc4cc(C(C)(C)C)cc(C(C)(C)C)c4)cc3C)cc2)cc1 [Example 11]

— patent US4724259A, “Azo dyes and liquid-crystalline materials containing these dyes” (BASF Aktiengesellschaft, priority 1983, dated 1988)
